Laboratory results taken from patent US20240108602A1, “TREATMENT OF MENTAL DISORDERS” (GH Research Ireland Limited, priority 2022, published 2024).
Values joined by “and” are separate entries in the source; they are usually repeats but may differ in a detail not shown here. Equal values may be shown once.

Tested on: patients with treatment-resistant major depressive disorder (TRD)
Experiment: Phase 1/2 clinical trial of inhaled 5-MeO-DMT in TRD patients (12 mg, 18 mg, individualized dosing regimen IDR 6/12/18 mg)
Protocol: Patients were assigned to different groups. In the context of the present invention, the group who received a single, 12 mg dose and the group who underwent an intra-day individualized dosing regimen (IDR) that allowed for multiple, escalating doses (6 mg, 12 mg and 18 mg) within a single day, driven by the intensity of the patient-reported psychedelic experience are of interest.
The data gathered include the assessment of the treated patients against several scales including the Montgomery-Åsberg Depression Rating Scale (MADRS) and the Brief Psychiatric Rating Scale (BPRS).
This trial was designed in two parts. Part A was an open-label, single-arm, single-dose Phase 1 trial with two dose levels (12 mg (n=4) and 18 mg (n=4)). […] The primary endpoint of Part B was to assess the effects on the severity of depression, as assessed by the proportion of patients in remission on day seven after dosing, defined as a MADRS total score of less than or equal to 10.

COc1ccc2[nH]cc(CCN(C)C)c2c1 [5-MeO-DMT]
MADRS Concentration Difficulties improvement (points) (IDR n=8, 2 h): 19
MADRS Concentration Difficulties percentage improvement (IDR n=8, 2 h): 63% and 63.33%
MADRS Concentration Difficulties summed score (IDR n=8, 2 h): 11
MADRS Inability to Feel improvement (points) (IDR n=8, 2 h): 24
MADRS Inability to Feel percentage improvement (IDR n=8, 2 h): 67% and 66.67%
MADRS Inability to Feel summed score (IDR n=8, 2 h): 12
MADRS Inner Tension improvement (points) (IDR n=8, 2 h): 15
MADRS Inner Tension percentage improvement (IDR n=8, 2 h): 58% and 57.69%
MADRS Inner Tension summed score (IDR n=8, 2 h): 11
MADRS Lassitude improvement (points) (IDR n=8, 2 h): 17
MADRS Lassitude percentage improvement (IDR n=8, 2 h): 63% and 62.96%
MADRS Lassitude summed score (IDR n=8, 2 h): 10
MADRS Pessimistic Thoughts improvement (points) (IDR n=8, 2 h): 21
MADRS Pessimistic Thoughts percentage improvement (IDR n=8, 2 h): 75%
MADRS Pessimistic Thoughts summed score (IDR n=8, 2 h): 7
MADRS Suicidal Thoughts improvement (points) (IDR n=8, 2 h): 8
MADRS Suicidal Thoughts percentage improvement (IDR n=8, 2 h): 73% and 72.72%
MADRS Suicidal Thoughts summed score (IDR n=8, 2 h): 3
BPRS Anxiety improvement (points) (IDR n=8, 3 h): 18
BPRS Anxiety percentage improvement (IDR n=8, 3 h): 49% and 48.65%
BPRS Anxiety summed score (IDR n=8, 3 h): 19
BPRS Blunted Affect improvement (points) (IDR n=8, 3 h): 4
BPRS Blunted Affect percentage improvement (IDR n=8, 3 h): 27% and 26.67%
BPRS Blunted Affect summed score (IDR n=8, 3 h): 11
BPRS Emotional Withdrawal improvement (points) (IDR n=8, 3 h): 5
BPRS Emotional Withdrawal percentage improvement (IDR n=8, 3 h): 38% and 38.46%
BPRS Emotional Withdrawal summed score (IDR n=8, 3 h): 8
BPRS Guilt Feelings improvement (points) (IDR n=8, 3 h): 20
BPRS Guilt Feelings percentage improvement (IDR n=8, 3 h): 59% and 58.82%
BPRS Guilt Feelings summed score (IDR n=8, 3 h): 14
BPRS Tension improvement (points) (IDR n=8, 3 h): 5
BPRS Tension percentage improvement (IDR n=8, 3 h): 31% and 31.25%
BPRS Tension summed score (IDR n=8, 3 h): 11
BPRS Anxiety improvement (points) (IDR n=8, Day 1): 21
BPRS Anxiety percentage improvement (IDR n=8, Day 1): 57% and 56.76%
BPRS Anxiety summed score (IDR n=8, Day 1): 16
BPRS Blunted Affect improvement (points) (IDR n=8, Day 1): 7
BPRS Blunted Affect percentage improvement (IDR n=8, Day 1): 47% and 46.67%
BPRS Blunted Affect summed score (IDR n=8, Day 1): 8
BPRS Emotional Withdrawal improvement (points) (IDR n=8, Day 1): 5
BPRS Emotional Withdrawal percentage improvement (IDR n=8, Day 1): 38% and 38.46%
BPRS Emotional Withdrawal summed score (IDR n=8, Day 1): 8
BPRS Guilt Feelings improvement (points) (IDR n=8, Day 1): 23
BPRS Guilt Feelings percentage improvement (IDR n=8, Day 1): 68% and 67.65%
BPRS Guilt Feelings summed score (IDR n=8, Day 1): 11
BPRS Tension improvement (points) (IDR n=8, Day 1): 5
BPRS Tension percentage improvement (IDR n=8, Day 1): 31% and 31.25%
BPRS Tension summed score (IDR n=8, Day 1): 11
MADRS Concentration Difficulties improvement (points) (IDR n=8, Day 1): 29
MADRS Concentration Difficulties percentage improvement (IDR n=8, Day 1): 97% and 96.67%
MADRS Concentration Difficulties summed score (IDR n=8, Day 1): 1
MADRS Inability to Feel improvement (points) (IDR n=8, Day 1): 34
MADRS Inability to Feel percentage improvement (IDR n=8, Day 1): 94% and 94.44%
MADRS Inability to Feel summed score (IDR n=8, Day 1): 2
MADRS Inner Tension improvement (points) (IDR n=8, Day 1): 20
MADRS Inner Tension percentage improvement (IDR n=8, Day 1): 77% and 76.92%
MADRS Inner Tension summed score (IDR n=8, Day 1): 6
MADRS Lassitude improvement (points) (IDR n=8, Day 1): 22
MADRS Lassitude percentage improvement (IDR n=8, Day 1): 81% and 81.48%
MADRS Lassitude summed score (IDR n=8, Day 1): 5
MADRS Pessimistic Thoughts improvement (points) (IDR n=8, Day 1): 24
MADRS Pessimistic Thoughts percentage improvement (IDR n=8, Day 1): 86% and 85.71%
MADRS Pessimistic Thoughts summed score (IDR n=8, Day 1): 4
MADRS Reduced Sleep improvement (points) (IDR n=8, Day 1): 13
MADRS Reduced Sleep percentage improvement (IDR n=8, Day 1): 52%
MADRS Reduced Sleep summed score (IDR n=8, Day 1): 12
MADRS Suicidal Thoughts improvement (points) (IDR n=8, Day 1): 10
MADRS Suicidal Thoughts percentage improvement (IDR n=8, Day 1): 91% and 90.91%
MADRS Suicidal Thoughts summed score (IDR n=8, Day 1): 1
BPRS Anxiety improvement (points) (IDR n=8, Day 7): 20
BPRS Anxiety percentage improvement (IDR n=8, Day 7): 54% and 54.05%
BPRS Anxiety summed score (IDR n=8, Day 7): 17
BPRS Blunted Affect improvement (points) (IDR n=8, Day 7): 7
BPRS Blunted Affect percentage improvement (IDR n=8, Day 7): 47% and 46.67%
BPRS Blunted Affect summed score (IDR n=8, Day 7): 8
BPRS Emotional Withdrawal improvement (points) (IDR n=8, Day 7): 5
BPRS Emotional Withdrawal percentage improvement (IDR n=8, Day 7): 38% and 38.46%
BPRS Emotional Withdrawal summed score (IDR n=8, Day 7): 8
BPRS Guilt Feelings improvement (points) (IDR n=8, Day 7): 24
BPRS Guilt Feelings percentage improvement (IDR n=8, Day 7): 71% and 70.59%
BPRS Guilt Feelings summed score (IDR n=8, Day 7): 10
BPRS Tension improvement (points) (IDR n=8, Day 7): 6
BPRS Tension percentage improvement (IDR n=8, Day 7): 38% and 37.50%
BPRS Tension summed score (IDR n=8, Day 7): 10
MADRS Concentration Difficulties improvement (points) (IDR n=8, Day 7): 21
MADRS Concentration Difficulties percentage improvement (IDR n=8, Day 7): 70%
MADRS Concentration Difficulties summed score (IDR n=8, Day 7): 9
MADRS Inability to Feel improvement (points) (IDR n=8, Day 7): 30
MADRS Inability to Feel percentage improvement (IDR n=8, Day 7): 83% and 83.33%
MADRS Inability to Feel summed score (IDR n=8, Day 7): 6
MADRS Inner Tension improvement (points) (IDR n=8, Day 7): 14
MADRS Inner Tension percentage improvement (IDR n=8, Day 7): 54% and 53.85%
MADRS Inner Tension summed score (IDR n=8, Day 7): 12
MADRS Lassitude improvement (points) (IDR n=8, Day 7): 24
MADRS Lassitude percentage improvement (IDR n=8, Day 7): 89% and 88.89%
MADRS Lassitude summed score (IDR n=8, Day 7): 3
MADRS Pessimistic Thoughts improvement (points) (IDR n=8, Day 7): 25
MADRS Pessimistic Thoughts percentage improvement (IDR n=8, Day 7): 89% and 89.29%
MADRS Pessimistic Thoughts summed score (IDR n=8, Day 7): 3
MADRS Reduced Sleep improvement (points) (IDR n=8, Day 7): 16
MADRS Reduced Sleep percentage improvement (IDR n=8, Day 7): 64%
MADRS Reduced Sleep summed score (IDR n=8, Day 7): 9
MADRS Suicidal Thoughts improvement (points) (IDR n=8, Day 7): 8
MADRS Suicidal Thoughts percentage improvement (IDR n=8, Day 7): 73% and 72.73%
MADRS Suicidal Thoughts summed score (IDR n=8, Day 7): 3
patients with MADRS remission (primary endpoint) (IDR n=8, day seven): 87.5%
SAEs reported (Part A): No SAEs
safety laboratory analyses, vital signs, psychiatric safety assessments, measures of cognitive function (Part A and Part B): No clinically significant changes
patients who experienced at least one ADR (Part A, in both groups (12 mg and 18 mg)): 3 of 4
SAEs reported (Part B IDR): No SAEs
patients who experienced at least one ADR (Part B IDR n=8): 87.5%
patients achieving remission (fraction) (day 1): 8/8
patients achieving remission (fraction) (within 2 h after dosing): ⅝
